# Source: PMC9655874, “Analysis of Volatile Secondary Metabolites in Ocimum basilicum Cell Suspensions: Inhibition, In Silico Molecular Docking, and an ADMET Analysis against Proteolytic Enzymes of Rhynchophorus ferrugineus” (Plants, 2022)
# Experiments:
# [1] = target: elastase of R. ferrugineus midgut; experiment: Serine proteinase specific activity, elastase (in vitro); type: biochemical, Rhynchophorus ferrugineus; settings: 4th instar midgut homogenate
# [2] = test system: cysteine protease of R. ferrugineus midgut; experiment: Cysteine protease activity in midgut of treated larvae (in vivo); parameters: species or system Rhynchophorus ferrugineus; settings: larvae treated 24 h, midgut preparation
# Experimental: (§1) Utilizing the substrate N-benzoyl-Phe-Val-Arg-p-nitroanilide hydrochloride and certain modifications, the cysteine proteinases of R. ferrugineus homogenate from the fourth midgut instar was tested for activity. Ten larvae of the fourth midgut were carefully taken out, dissected, and periodically washed with 0.9% (w/v) NaCl solution, assay buffer containing 50 mM HEPS, 5 mM DTT, and 0.1% Triton X-100 (v/v) (pH 8.0, 500 µL) was used to homogenize the samples. The homogenates were spun using a cooling Sigma 3k30 centrifuge for 30 min at 5000 rpm. […] Before introducing 100 µL of the substrate, 10 µL of the supernatant was incubated in assay buffer (60 µL, pH = 8) at 37 °C for 30 min. Enzyme samples in 10 µL were incubated for 10 min with iodoacetic acid before the addition of the substrate. […] The absorbance at 520 nm was measured after spinning the reaction for 6 min at 5000 rpm. The activity in the midgut was assayed at OD520.60 min^−1 mg^−1 of protein with an ELISA rapid reader.
# [3] = test system: metalloprotease of R. ferrugineus midgut; experiment: Metalloprotease activity in midgut of treated larvae (in vivo); settings: larvae treated 24 h, midgut preparation
# Experimental: (§4) The ten midgut larvae from the fourth stage were neatly eliminated, dissected, and repeatedly washed with 0.9% NaCl solution. A 500 µL protease test solution, including 50 mM HEPS, 0.1% Triton X-100, and 5 mM DTT (pH 8.0), was utilized to homogenize the midgut instar. The homogenates were then centrifuged employing a Sigma 3k30 (cooling centrifuge) at 5000 rpm for 30 min to evaluate the supernatant’s enzyme activity and protein content. Before introducing CEGR (125 µL, 2% (w/v)), each experiment’s supernatant (10 µL) was incubated in an assay buffer (60 µL) at 37 °C for 20 min (pH 8). During a 10 min incubation period without a substrate, 10 µL enzyme samples were tested (20 min. for EDTA, EGTA, 1.10, Phenanthroline). After 180 min at 37 °C, 300 µL of cold TCA, 10% (v/v), was used to terminate the reaction. For the next 20 min, the mixture was spun (5000 rpm, Sigma 3K30). The absorbance was measured at 450 nm after mixing the supernatant with hydroxide solution (10 µL, 10 N) using an ELISA reader. An enzyme-free assay combination was utilized as a blank, and particular activity was evaluated utilizing the OD493 mg^−1 protein min^−1 and an enzyme-free blank specimen.
# (§5) An experiment that was set up free of potential inhibitors served as a control. An ELISA plate fast reader measured the enzymes’ absorption at various wavelengths. For each inhibitor, the control enzyme’s percentage activity was assessed for each enzyme. Four instars midgut larvae were treated with previous concentrations of extracts or compounds, assessed as previously mentioned, to measure the protease activity in vivo. Larvae were subjected to extract- and compound-treated leaf discs for 24 h.
# [4] = target: metalloprotease of R. ferrugineus midgut; experiment: Metalloproteinase specific activity, CEGR substrate (in vitro); settings: 4th instar midgut homogenate
# Experimental: as §4, §5
# [5] = target: trypsin proteinase of R. ferrugineus midgut; experiment: Serine proteinase specific activity, trypsin (in vitro); settings: 4th instar midgut homogenate
# Experimental: (§6) We used a serine protease assay buffer and a modified version of the fast microplate method to analyze the serine proteinase’s specific activity in mixtures (150 µL) [26]. […] The sample (10 µL) was diluted using an assay buffer to 50 µL to determine the presence of trypsin proteinase, chymotrypsin proteinase, and elastase. Assay buffer was used to dilute stock substrates of BAρNA (100 mg/mL DMSO), both SAAPFρNA and SAAPLρNA (100 mg/mL DMF), to 1.0 mg/mL. To halt the reaction after 15 min of incubation at 37 °C, 50 µL of acetic acid (30%, v/v) was added. The intensity of the activity was measured using a 405 nm ELISA plate reader. A denaturation enzyme was used in place of an active enzyme in the experiment mixture. For three substrates (SAAPLρNA, BAρNA, and SAAPFρNA), activity levels of certain proteinases were assessed as OD mg^−1 protein min^−1.
# as §5
# R. ferrugineus adults = experiment: whole plant or invertebrate; type: in vivo; settings: Rhynchophorus ferrugineus, read-out: LC50 (µg/mL) 95% CF
# Experimental: (§2) Cells were suspended in the methanolic extract at serially increasing concentrations for 40 days. To dilute the compounds, TritonX-100 (0.1%) was added to acetone after the chemicals were dissolved. Adults or larvae of R. ferrugineus were purchased. They were then cultured using long lengths of sugar cane stem. The extracts’ anti-larvae action was assessed by applying topically to larvae and keeping them at 4–5 °C for 5 min. Utilizing a manually controlled micro-applicator, each larva had extract injected into its dorsum in three separate 10 µL doses using a 50-ll micro-syringe from Hertfordshire, UK’s Burkard Manufacturing Co., Ltd. (MS-N50; Shizuoka, Japan’s Ito Corp.). Five larvae in a box with three replications were fed on portions of long sugarcane stem measuring 10 cm. […] The sugarcane stem’s ten-centimeter-long portions cut into equal longitudinal halves were used to measure the antifeedant activity against adults. Long sections of sugarcane stem with a surface area of approximately 32.2 cm^2 were dried in air at room temperature, assuming a dipping time of 10 s and an initial serial concentration of (10 mL). Each treated object remained in a plastic container. Each box included an additional pair (male and female). Each therapy was administered ten times. In total, 24-, 48-, 72-, and 96-h feeding observations were assessed.
# (§3) Statistics and probit analysis were performed using SPSS 25.0, as mentioned by Finney. To sum up, all numerical predictions of toxicity variables and findings were presented as the mean ± SE. We regressed mortality and translated the resulting dosage to an LC50 value (µg/mL). […] Enzyme activity data were analyzed using an ANOVA. Means were separated using the SNK (Student–Newman–Keuls) test, and deviations at the p ˂ 0.05 level were considered noteworthy.
# [6] = test system: R. ferrugineus 4th larvae; experiment: Topical application (contact insecticide) to fourth instar larvae; type: in vivo, Rhynchophorus ferrugineus
# Experimental: as §2, §3
# [7] = test system: trypsin proteinase of R. ferrugineus midgut; experiment: Trypsin activity in midgut of treated larvae (in vivo); settings: larvae treated 24 h, midgut preparation
# Experimental: as §6, §5
# [8] = target: total proteases of R. ferrugineus midgut; experiment: Total proteolytic enzyme activity of 4th instar midgut homogenate, azocasein (in vitro)
# Experimental: (§7) The homogenate of R. ferrugineus 4th midgut instar larvae (lab strain) was assayed for total proteolytic enzyme activity using azocasein, as Darrag et al. [26], with modifications. Ten 4th midgut larval homogenates were carefully removed, incised, and then rinsed in a solution containing 0.9% NaCl before even being homogenized in a buffer (500 µL) containing 5 mM dithiothreitol (DTT), 0.1% (v/v) Triton X-100, and 50 mM N-2-hydroxyethyl piperazine-N′-2-ethane sulphonic acid (HEPS), and 8.0 pH. It was spun in a centrifuge (Sigma 3k30), and the remaining homogenates were from a preliminary phase for 30 min at 5000 rpm. Using the supernatants, the protein concentration and proteolytic enzyme activity were determined. […] Before each reaction experiment, 40-day-old methanolic extract of cell suspension, pure chemicals, and 10 μL of enzyme specimens were incubated for 10 min. The addition of the substrate initiated the reaction, which was allowed for 20 min in the case of leupeptin before being terminated 180 min later by adding 300 µL of cold tri-chloroacetic acid (TCA) (10%, v/v). Twenty minutes were spent centrifuging the mixture at 5000 rpm (Sigma 3k30). Overall, 10 µL of NaOH (10 N) was added to the supernatant, and the absorbance was measured using an ELISA plate reader at 450 nm to quantify the enzymes’ specific activity as OD450/mg protein/h.
# as §5
# [9] = target: cysteine protease of R. ferrugineus midgut; experiment: Cysteine proteinase activity (in vitro); type: biochemical, Rhynchophorus ferrugineus; settings: 4th instar midgut homogenate
# Experimental: as §1
# [10] = test system: elastase of R. ferrugineus midgut; experiment: Elastase activity in midgut of treated larvae (in vivo); parameters: species or system Rhynchophorus ferrugineus; settings: larvae treated 24 h, midgut preparation
# [11] = test system: total proteases of R. ferrugineus midgut; experiment: Total protease activity in midgut of treated larvae (in vivo); settings: larvae treated 24 h, midgut preparation
# Experimental: as §7, §5
smiles,measurement,setting,value
C=C(C)C1CCC(C)(O)CC1 (stereo not drawn) [β-terpineol],IC50 elastase (in vitro),[1],112.6 µg/mL
same,IC50 cysteine protease (in vivo),[2],427.4 µg/mL
same,IC50 metalloprotease (in vivo),[3],1175.2 µg/mL
same,IC50 metalloprotease (in vitro),[4],543.5 µg/mL
same,IC50 trypsin proteinase (in vitro),[5],168.4 µg/mL
same,LC50,R. ferrugineus adults,3920 µg/mL
same,LD50 (µg/Larvae) 95% CF,"[6]; 4th larvae, topical, 95% confidence limits in brackets",42.6 (39.7–44.3) µg/Larvae
same,LD50,"[6]; larvae, topical application",42.6 µg/larva
same,IC50 trypsin proteinase (in vivo),[7],237.1 µg/mL
same,IC50 total proteases (in vitro),[8],281.7 µg/mL
same,IC50 cysteine protease (in vitro),[9],287.3 µg/mL
same,IC50 elastase (in vivo),[10],239.4 µg/mL
same,IC50 total proteases (in vivo),[11],379.5 µg/mL
